Measured values as given in patent publication US11091479B2, “Triazolopyridin-3-ones or their salts and pharmaceutical compositions comprising the same” (YUHAN CORPORATION, priority 2018, dated 2021).
Structures can show the parent of a compound that is named as a salt.

Legend:
Assay type in all cases: biochemical
[1] = biological target: T1, recombinant human VAP-1 (Homo sapiens, UniProt Q16853); assay: Activity on recombinant human VAP-1, HRP-coupled Amplex Red hydrogen peroxide assay, benzylamine substrate; conditions: 30 min incubation at 37° C., 1 mM benzylamine, read-out: Inhibitory Activity (IC50, nM) human VAP-1
T1 construct: purchased R&D systems
T1 sequence (Q16853 1-763): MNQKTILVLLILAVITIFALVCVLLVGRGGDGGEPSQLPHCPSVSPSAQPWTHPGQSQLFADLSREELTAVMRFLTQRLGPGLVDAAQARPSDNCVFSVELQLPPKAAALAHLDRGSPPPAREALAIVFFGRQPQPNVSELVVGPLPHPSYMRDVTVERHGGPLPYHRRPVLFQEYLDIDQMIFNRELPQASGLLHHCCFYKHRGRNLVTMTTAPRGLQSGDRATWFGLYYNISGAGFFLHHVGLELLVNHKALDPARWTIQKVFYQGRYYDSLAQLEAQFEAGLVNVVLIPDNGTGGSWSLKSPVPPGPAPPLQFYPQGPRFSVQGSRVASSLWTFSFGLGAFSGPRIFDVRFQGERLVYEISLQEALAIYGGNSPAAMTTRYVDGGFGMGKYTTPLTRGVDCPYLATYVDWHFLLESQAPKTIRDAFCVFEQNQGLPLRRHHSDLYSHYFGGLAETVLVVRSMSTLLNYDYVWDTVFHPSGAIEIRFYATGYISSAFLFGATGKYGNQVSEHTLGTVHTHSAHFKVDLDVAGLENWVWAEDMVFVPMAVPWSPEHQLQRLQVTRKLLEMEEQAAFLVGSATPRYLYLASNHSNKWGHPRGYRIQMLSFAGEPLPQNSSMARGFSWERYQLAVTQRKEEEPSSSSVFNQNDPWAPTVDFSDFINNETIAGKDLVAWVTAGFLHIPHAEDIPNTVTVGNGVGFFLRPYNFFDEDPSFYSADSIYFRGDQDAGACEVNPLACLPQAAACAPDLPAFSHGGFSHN
In short: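 Recombinant human VAP-1 in 50 mM sodium phosphate pH 7.4 preincubated with compound for 30 min at 37 °C, then 1 mM benzylamine, 200 uM Amplex Red and 1 U/mL HRP added. Resorufin fluorescence (ex 544/em 590 nm) followed over 1-2 h; % signal-rate decrease vs DMSO control, 8-point 4-parameter fit for IC50.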

[2] = biological target: T2, recombinant human MAO-A (monoamine oxidase-A) (Homo sapiens, UniProt P21397); assay: Activity on recombinant human MAO-A, method similar to VAP-1 assay, 0.5 mM tyramine substrate; conditions: read-out: Inhibitory Activity (IC50, nM) MAO-A
T2 construct: purchased Sigma-Aldrich
T2 sequence (P21397 1-527): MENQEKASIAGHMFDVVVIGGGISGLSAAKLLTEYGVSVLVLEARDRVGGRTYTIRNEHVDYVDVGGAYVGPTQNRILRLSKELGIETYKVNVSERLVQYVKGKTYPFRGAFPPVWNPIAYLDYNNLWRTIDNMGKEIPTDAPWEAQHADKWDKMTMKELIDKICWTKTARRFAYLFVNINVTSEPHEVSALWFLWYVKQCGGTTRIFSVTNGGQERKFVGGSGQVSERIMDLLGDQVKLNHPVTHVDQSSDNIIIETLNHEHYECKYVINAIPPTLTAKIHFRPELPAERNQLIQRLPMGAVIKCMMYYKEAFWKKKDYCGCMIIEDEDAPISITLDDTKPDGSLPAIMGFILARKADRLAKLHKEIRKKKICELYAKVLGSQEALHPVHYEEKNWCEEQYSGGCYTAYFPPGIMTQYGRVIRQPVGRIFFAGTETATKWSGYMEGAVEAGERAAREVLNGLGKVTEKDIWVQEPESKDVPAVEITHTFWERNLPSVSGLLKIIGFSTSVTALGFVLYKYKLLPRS
In short: (§1)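 Amplex Red/HRP-coupled H2O2 fluorescence assay run as for VAP-1: enzyme in 50 mM sodium phosphate pH 7.4 preincubated with compound 30 min at 37 °C, then substrate (putrescine for DAO, benzylamine for MAO-B, tyramine for MAO-A) added with 200 uM Amplex Red, 1 U/mL HRP. Signal rate over 1-2 h; IC50 from 4-parameter logistic fit.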

[3] = biological target: T3, recombinant human MAO-B (monoamine oxidase-B) (Homo sapiens, UniProt P27338); assay: Activity on recombinant human MAO-B, method similar to VAP-1 assay, 1 mM benzylamine substrate; conditions: read-out: Inhibitory Activity (IC50, nM) MAO-B
T3 construct: purchased Sigma-Aldrich
T3 sequence (P27338 1-520): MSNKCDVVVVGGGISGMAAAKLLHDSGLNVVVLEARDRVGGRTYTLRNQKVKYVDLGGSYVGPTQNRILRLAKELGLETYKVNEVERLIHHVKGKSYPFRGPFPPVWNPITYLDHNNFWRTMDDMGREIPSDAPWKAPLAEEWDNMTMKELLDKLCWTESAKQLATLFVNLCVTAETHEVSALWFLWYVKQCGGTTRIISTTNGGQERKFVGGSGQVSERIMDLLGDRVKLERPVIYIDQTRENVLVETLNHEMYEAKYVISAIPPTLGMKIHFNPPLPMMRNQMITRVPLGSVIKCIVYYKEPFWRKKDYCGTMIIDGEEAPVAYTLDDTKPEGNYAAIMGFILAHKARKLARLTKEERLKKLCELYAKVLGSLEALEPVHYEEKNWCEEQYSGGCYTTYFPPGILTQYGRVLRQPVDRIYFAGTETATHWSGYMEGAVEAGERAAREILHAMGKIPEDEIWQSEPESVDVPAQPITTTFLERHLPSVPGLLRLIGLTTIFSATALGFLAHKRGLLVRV
In short: as §1

[4] = biological target: T4, recombinant human DAO (diamine oxidase) (Homo sapiens, UniProt P19801); assay: Activity on recombinant human DAO, method similar to VAP-1 assay, 1 mM putrescine substrate; conditions: read-out: Inhibitory Activity (IC50, nM) DAO
T4 construct: purchased R&D systems
T4 sequence (P19801 20-751): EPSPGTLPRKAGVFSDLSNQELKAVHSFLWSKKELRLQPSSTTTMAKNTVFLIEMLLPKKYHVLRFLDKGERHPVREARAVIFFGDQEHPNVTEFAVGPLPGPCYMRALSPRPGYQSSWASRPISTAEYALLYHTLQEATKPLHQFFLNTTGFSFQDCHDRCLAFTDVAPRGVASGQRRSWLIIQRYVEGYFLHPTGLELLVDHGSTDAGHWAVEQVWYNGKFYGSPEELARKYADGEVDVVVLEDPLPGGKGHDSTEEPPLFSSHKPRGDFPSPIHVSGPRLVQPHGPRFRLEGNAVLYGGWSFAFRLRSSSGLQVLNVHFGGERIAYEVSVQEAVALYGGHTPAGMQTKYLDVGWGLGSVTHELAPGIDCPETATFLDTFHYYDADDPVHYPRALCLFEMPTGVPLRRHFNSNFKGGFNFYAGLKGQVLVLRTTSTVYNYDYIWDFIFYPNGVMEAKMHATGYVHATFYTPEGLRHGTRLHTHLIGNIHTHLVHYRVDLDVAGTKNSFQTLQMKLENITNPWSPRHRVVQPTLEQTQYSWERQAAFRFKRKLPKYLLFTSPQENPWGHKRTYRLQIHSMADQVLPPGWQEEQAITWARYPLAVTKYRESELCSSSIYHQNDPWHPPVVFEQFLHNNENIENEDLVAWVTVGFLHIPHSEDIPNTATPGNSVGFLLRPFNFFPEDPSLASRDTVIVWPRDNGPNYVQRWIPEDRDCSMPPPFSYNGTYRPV
In short: as §1

Row | IC50 [1] [nM] | IC50 [2] [nM] | IC50 [3] [nM] | IC50 [4] [nM] | Compound
1 | 0.2 | > 100000 | 14000 | 150 | NCC(Cn1nc2cc(C#Cc3ccc4c(c3)CCC(=O)N4)ccn2c1=O)=C(F)F [Example 62, 6-[2-[2-[2-(aminomethyl)-3,3-difluoro-allyl]-3-oxo-[1,2,4]triazolo[4,3-a]pyridin-7-yl]ethynyl]-3,4-dihydro-1H-quinolin-2-one trifluoroacetate]
2 | 2.2 | > 100000 | > 100000 | 320 | CN1CCOc2cc(C#Cc3ccn4c(=O)n(CC(CN)=C(F)F)nc4c3)ccc21 [Example 63, 2-[2-(aminomethyl)-3,3-difluoro-allyl]-7-[2-(4-methyl-2,3-dihydro-1,4-benzoxazin-7-yl)ethynyl]-[1,2,4]triazolo[4,3-a]pyridin-3-one trifluoroacetate]
